Laboratory results published in patent US20250073211A1, “USE OF ERGOTHIONEINE TO SUPPRESS DELETERIOUS EFFECTS OF SENESCENCE” (NANJING NUTRABUILDING BIO-TECH CO., LTD., priority 2022, published 2025).

Experiments:
[1] = test system: HDFn cells; test: Senostatic Profile Assay (senescence markers Ki67, p21, p16, SAβG under chronic supplementation); format: cell-based, Human; settings: for percentage of SAβG positive HDFn cells: untreated 9.8%±2.7
Description: (§1) HDFn cells (C0045C, Thermo Scientific, US) were obtained and proliferated to passage 32 (population doubling 58) in standard DMEM proliferation medium (10% FBS) at standard culture conditions (37°° C., 20% O2, 5% CO2). At each passage, cells were cryopreserved and banked. The cells were deemed replicatively senescent at passage 32. When required, cryovial contents was thawed gradually into 5 ml pre-warmed 10% FBS media with gentle pipetting and centrifuged. The supernatant was discarded, and the cell pellet was resuspended into 10% media and cells were counted using a hemocytometer and trypan blue.
Treatment conditions tested in this assay were 0, 0.5, 3.0 and 30 μM of EGT as a constant supplementation in standard DMEM (10% FBS). HDFn cells were thawed at passage 20 and seeded at 1.5×10^5 cells per flask. Three flasks per condition were seeded. Media was changed every three days. At passages 22, 24, and 26, the HDFn cells were seeded onto 48-well plates at 10,000 cells per well in triplicates per flask, and cultured in DMEM media containing 0, 0.5, 3.0, and 30 μM of EGT, respectively. The cells were proliferated until 70% confluence or for 7 days. The cells were then washed with PBS and fixed with 2% PFA, and stored at 4° C. until immunostaining. For β-galactosidase staining, the staining solution was added onto the cells immediately after fixation and incubated at 37° C. for 24 h. The staining solution was removed, and the wells filled with PBS until imaging. As a positive control for senescence phenotype, one set of wells from the untreated flasks were seeded. At 70% confluence, the cells were treated with 600 μM of hydrogen peroxide in serum-free DMEM for 2 h, then incubated with standard DMEM proliferation medium for 5 days to allow the senescence phenotype to develop. The cells were fixed and stained in the same manner as the other treatment conditions.
(§2) The panel of senescence markers, Ki67, p16 and p21 were analyzed by immunohistochemical staining using an HRP/DAB kit (ab64264, Abcam, UK). • Antibody details • 1) Ki67—1:1000 dilution, anti-rabbit, ab92742, Abcam; • 2) p16—1:500 dilution, anti-rabbit, ab 108349, Abcam; • 3) p21—1:100 dilution, anti-rabbit, ab 109542, Abcam.
(§3) The cells were counterstained with hematoxylin.
(§4) The senescence-associated β-galactosidase solutions and staining was performed according to Dimri et al, A biomarker that identifies senescent human cells in culture and in aging skin in vivo, Proc. Natl. Acad. Sci. 1995 Sep. 26; 92 (20): 9363-9367. The cells were counterstained with Nuclear Fast Red.
(§5) All staining were imaged on an EVOS XL core microscope at 100× magnification.
(§6) The images were white balanced using a macro on ImageJ. Cells were manually counted using the cell counter plugin and recorded. Graphs and statistics were created using GraphPad Prism 5. For each dataset, a two-way ANOVA was performed with Bonferroni posthoc test against the untreated control. P-values on the graphs are shown as *p<0.05, ** p<0.01, *** p<0.001.

[2] = test system: HDFn cells; test: Senolytic Profile Assay (cell counts and senescence markers after 3 days of acute treatment at passage 31); format: cell-based, Human; settings: for Ki67-positive population: day 9 to 12 timepoint, 0 μM: 3.4%±1.5, p<0.001; for percentage of p21 positive HDFn cells / percentage of p16 positive HDFn cells: timepoint 1 (day 0 to 3); for percentage of p21 positive HDFn cells: 0 μM: 63.1%±9.3; for percentage of p16 positive HDFn cells: 0 μM: 67.8%±4.7; for cell counts: 3 days of treatment
Description: as §1
Treatment conditions tested in this assay were 0, 3, 30 and 300 μM of EGT as an acute supplementation over 3 days in standard DMEM (10% FBS). Positive controls for senolytic activity were 13 μM of Navitoclax and 600 μM of Fisetin. A 0.1% DMSO condition was introduced as a vehicle control for Fisetin. At passage 31, the HDFn cells were seeded at 10,000 cells per well in triplicate wells onto 48-well plates. After 2 days of acclimatization, cells were treated for 3 days with the conditions above. The cells were then washed with PBS and fixed with 2% PFA. The wells were filled with PBS and stored at 4° C. until immunostaining. For β-galactosidase staining, the staining solution was added onto the cells immediately after fixation and incubated at 37° C. for 24 h. The staining solution was removed, and the wells filled with PBS until imaging. This was repeated for timepoints day 0 to 3, day 6 to 9, and day 9 to 12.
as §2, §3, §4, §5, §6

C[N+](C)(C)[C@@H](Cc1c[nH]c(=S)[nH]1)C(=O)[O-] [EGT, L-Ergothioneine]
effect on the percentage of p16 positive HDFn cells ([1]; across all three passages (22, 24, 26), EGT 0.5, 3.0, 30 μM): did not robustly affect | change of percentage of Ki67 positive HDFn cells compared with the untreated control ([1]; all three passages (22, 24, 26), EGT 0.5, 3.0, 30 μM constant supplementation): did not result in statistically significant changes | senostatic effect ([1]; low chronic doses (0.5-30 μM) in HDFn cells): can confer senostatic effects | reduction of the percentage of p21 positive HDFn cells ([1]; passage 22, 0.5 μM EGT, p<0.001): 16.5% | percentage of p21 positive HDFn cells ([1]; passage 22, 0.5 μM EGT, untreated 82.5%±2.3, mean±SEM): 66.0%±2.4 | reduction of the percentage of p21 positive HDFn cells ([1]; passage 22, 3 μM EGT, p<0.001): 20.1% | reduction of the percentage of p21 positive HDFn cells ([1]; passage 22, 30 μM EGT, p<0.001): 21.8% | reduction in p16-positive cells ([1]; passage 24, 0.5 μM EGT, p<0.001): 15% | change of percentage of p21 positive HDFn cells ([1]; passage 24 or 26, EGT 0.5, 3.0, 30 μM): did not result in statistically significant changes | percentage of SAβG positive HDFn cells ([1]; passage 26, 0.5 μM EGT, p<0.001): 4.8%±5.7 | percentage of SAβG positive HDFn cells ([1]; passage 26, 3.0 μM EGT, p<0.001): 3.5%±2.0 | percentage of SAβG positive HDFn cells ([1]; passage 26, 30 μM EGT, p<0.001): 5.0%±2.9 | mean SAβG reduction ([1]; passage 26, mean over 0.5, 3.0 and 30 μM EGT): 50% | senolytic activity ([2]; HDFn cells at passage 31, at up to 300 μM): not senolytic | Ki67-positive population ([2]; passage 31, 30 μM EGT): 9.2%±3.8 | percentage of p21 positive HDFn cells ([2]; passage 31, 30 μM EGT): 29.1%±7.4 | percentage of p16 positive HDFn cells ([2]; passage 31, 30 μM EGT): 7.0%±2.8 | Ki67-positive population ([2]; passage 31, 300 μM EGT): 11.4%±2.6 | percentage of p21 positive HDFn cells ([2]; passage 31, 300 μM EGT): 27.0%±2.0 | percentage of p16 positive HDFn cells ([2]; passage 31, 300 μM EGT): 11.7%±5.9 | cell counts ([2]; passage 31, 3, 30 and 300 μM EGT vs 0 μM): did not change much | effect on the percentage of SAβG positive HDFn cells ([2]; passage 31, EGT 3, 30, 300 μM, any timepoint): no statistically significant effect

O=c1c(O)c(-c2ccc(O)c(O)c2)oc2cc(O)ccc12 [FIS, Fisetin, reference compound]
cell counts ([2]; passage 31, 600 μM Fisetin, positive control): dramatically decreased

CC1(C)CCC(c2ccc(Cl)cc2)=C(CN2CCN(c3ccc(C(=O)NS(=O)(=O)c4ccc(N[C@H](CCN5CCOCC5)CSc5ccccc5)c(S(=O)(=O)C(F)(F)F)c4)cc3)CC2)C1 [NAV, Navitoclax, reference compound]
cell counts ([2]; passage 31, 13 μM Navitoclax, positive control): dramatically decreased

OO [hydrogen peroxide, reference compound]
SAβG levels (senescence-associated β-galactosidase positive HDFn cells) ([1]; 600 μM hydrogen peroxide for 2 h, then 5 days, positive control for senescence phenotype): remained low
